Experimental data reported in patent US20120276577A1, “Method for Determining the Susceptibility of a Cell Strain to Drugs” (ASSISTANCE PUBLIQUE - HOPITAUX DE PARIS, priority 2009, published 2012).
Like-named read-outs stand apart in the source and are kept apart here.

Columns and labels:
[1] = system: Candida albicans; test: MALDI-TOF MS minimal profile change concentration (MPCC) determination; assay type: cell-based; conditions: for FCZ MPCCs: 15 h culture, MALDI-TOF MS
Protocol: Fluconazole (FCZ) pure powder (Sigma Chemical CO., Saint-Louis, Mo., USA) was dissolved in pure water. Serial dilutions of drug (concentration ranged from 256 to 0.25 μg/ml), made into RPMI 1640 medium (with glutamine and without bicarbonate, Invitrogen) buffered with MOPS (0.165M) (Sigma Chemical CO., Saint-Louis, Mo., USA) and adjusted to pH 7 with sodium hydroxide (5N), were dispensed in 600 μl aliquots into sterile 24-well flat-bottomed microtiter plates.
After cultivation during 48 h at 37° C. on Sabouraud agar medium, yeasts cells were transferred into RPMI 1640 medium (with glutamine but without bicarbonate, Invitrogen) buffered with MOPS (0.165M) (Sigma Chemical CO., Saint-Louis, Mo., USA), and adjusted to pH 7 with sodium hydroxide (5N). Then, 600 μl of RPMI with yeast (2.106 yeasts/imp were added to 600 μl of RPMI with FCZ into microtiter plates (final FCZ concentration ranged from 128 to 0.125 μg/ml), or in RPMI alone as negative control. Culture was performed in a 30° C. incubator for 15 hours, with continuous agitation.
Yeast extraction was performed as follows: • (1) samples were centrifuged and the supernatant removed before the pellet was washed twice in pure water; • (2) the pellet was then resuspended in 300 μL of pure water, and 900 μL of ethanol were then added; • (3) after another round of centrifugation, 50 μL of 70% formic acid and 50 μL pure acetonitrile were added to the residual pellet and subsequent solution was repeatedly and thoroughly vortexed before a final centrifugation. Each centrifugation was performed at 10 000 rpm for 10 minutes at room temperature.
The supernatant was distributed (0.5 μl droplet) in duplicate on a MALDI AnchorChip sample slide (Bruker-Daltonics, Bremen, Germany), then air-dried. The α-cyano-4-hydroxycinnamic acid (CHCA) matrix (Bruker-Daltonics), prepared at a concentration of 50 mg/ml in 50% acetonitrile and 50% water with 0.1% TFA, was sonicated for 5 min before being spotted (0.5 μl) over the dried sample. A DH5a Escherichia coil protein extract (Bruker-Daltonics) was deposited on the calibration spot of the Anchorchip for external calibration. MALDI analysis were performed on a Bruker Autoflex I MALDI TOF mass spectrometer with a nitrogen laser (337 nm) operating in linear mode with delayed extraction (260 ns) at 20 kV accelerating voltage. Each spectrum was automatically collected in the positive ion mode as an average of 500 laser shots (50 laser shots at 10 different spot positions). Laser energy was set just above the threshold for ion production. Mass range between 3,000 and 20,000 m/z (ratio mass/charge) was selected to collect the signals with the AutoXecute tool of flexControl acquisition software (Version 2.4; Bruker-Daltonics). Only peaks with a signal/noise ratio >3 were considered. […] For each cultivation condition, we collected mass spectra from 3 biological replicates and 2 technical replicates.
Data obtained from the flex control acquisition software were a set of lists of mass/charge peaks and corresponding intensities, one list for each spectrum. For each FCZ concentration (11 FCZ concentrations and without FCZ), 6 spectra, obtained from 3 biological replicates tested in duplicate, were collected, so the whole initial set of data consisted of 72 spectra.
Alignment was performed using a method based on the mean spectrum, using an approach similar to that recommended by Coombes et al. (Coombes K R, Baggerly K A, and Morris J S: Pre-Processing Mass Spectrometry Data. Fundamentals of Data Mining in Genomics and Proteomics, W Dubitzky, M Granzow, and D Berrar, eds. Kluwer, Boston, 79-99 (2007)).
The mean spectrum of the 72 spots was computed, a simple peak detection algorithm was run on the mean spectrum, and a selection of the final peak locations was based on the mean intensity of the peak. For each spectrum, the peaks corresponding to the final peak locations were retained for the statistical analysis. […]

[2] = system: Candida albicans; conditions: CLSI, cited from earlier work
[3] = C. albicans clinical isolate DSY281 (group A)
[4] = C. albicans clinical isolate DSY284 (group A)
[5] = C. albicans clinical isolate DSY289 (group F)
[6] = C. albicans clinical isolate DSY290 (group G)
[7] = C. albicans clinical isolate DSY292 (group G)
[8] = C. albicans clinical isolate DSY 294 (group B)
[9] = C. albicans clinical isolate DSY296 (group B)
[10] = C. albicans clinical isolate DSY347 (group F)
[11] = C. albicans clinical isolate DSY544 (group C)
[12] = C. albicans clinical isolate DSY2260 (group D)
[13] = C. albicans clinical isolate DSY2262 (group D)
[14] = C. albicans clinical isolate DSY2284 (group H)
[15] = C. albicans clinical isolate DSY2285 (group H)
[16] = C. albicans clinical isolate DSY2321 (group E)
[17] = C. albicans clinical isolate DSY2322 (group E)
[18] = C. albicans clinical isolate DYS775 (group C)
[19] = C. albicans reference strain ATCC 90028

In the case of `OC(Cn1cncn1)(Cn1cncn1)c1ccc(F)cc1F` [FCZ, Fluconazole], the “FCZ MPCCs” value [1, 3] is reported as 0.5 µg/mL, the “FCZ MPCCs” value [1, 4] is reported as 8 µg/mL and the “FCZ MPCCs” value [1, 5] is reported as 128 µg/mL. The “FCZ MPCCs” value [1, 6] was 0.25 µg/mL, the “FCZ MPCCs” value [1, 7] was 128 µg/mL and the “FCZ MPCCs” value [1, 8] was 0.25 µg/mL. For the same compound, the “FCZ MPCCs” value [1, 9] was 128 µg/mL, the “FCZ MPCCs” value [1, 10] was 0.125 µg/mL and the “FCZ MPCCs” value [1, 11] was 0.25 µg/mL. For the same compound, the “FCZ MPCCs” value [1, 12] was 4 µg/mL, the “FCZ MPCCs” value [1, 13] was 32 µg/mL and the “FCZ MPCCs” value [1, 14] was 0.5 µg/mL. For the same compound, the “FCZ MPCCs” value [1, 15] was 16 µg/mL, the “FCZ MPCCs” value [1, 16] was 0.5 µg/mL and the “FCZ MPCCs” value [1, 17] was 16 µg/mL. For the same compound, the “FCZ MPCCs” value [1, 18] was 64 µg/mL, the “FCZ MPCCs” value [1, 19] was 0.25 µg/mL and the “mass spectrometry spectra compared with the control culture” value ([1]; DSY2260 C. albicans, cultures exposed up to 2 μg/ml FCZ, 15 h) was “indistinguishable”. The “FCZ MICs” value [2, 3] was 1 µg/mL, the “FCZ MICs” value [2, 4] was 32 µg/mL and the “FCZ MICs” value [2, 5] was 128 µg/mL. The “FCZ MICs” value [2, 6] was 0.5 µg/mL, the “FCZ MICs” value [2, 7] was 128 µg/mL and the “FCZ MICs” value [2, 8] was 0.25 µg/mL. For the same compound, the “FCZ MICs” value [2, 9] was 128 µg/mL, the “FCZ MICs” value [2, 10] was 0.25 µg/mL and the “FCZ MICs” value [2, 11] was 0.5 µg/mL. For the same compound, the “FCZ MICs” value [2, 12] was 8 µg/mL, the “FCZ MICs” value [2, 13] was 64 µg/mL and the “FCZ MICs” value [2, 14] was 0.25 µg/mL. The “FCZ MICs” value [2, 15] was 16 µg/mL, the “FCZ MICs” value [2, 16] was 0.25 µg/mL and the “FCZ MICs” value [2, 17] was 16 µg/mL. The “FCZ MICs” value [2, 18] was 128 µg/mL and the “FCZ MICs” value [2, 19] was 0.25 µg/mL.
